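Compound exposure: 48 hours, 5 concentrations, 96-well plates. TGI denotes the concentration required for complete inhibition of growth.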
How the values were obtained:
Test in all cases: NCI tumour cell line growth inhibition, 48 h
CAKI-1 renal = test system: CAKI-1 renal
HOP-92 NSCLC = test system: HOP-92 NSCLC
SF-295 CNS = test system: SF-295 CNS
HOP-62 NSCLC = test system: HOP-62 NSCLC
SK-MEL-5 melanoma = test system: SK-MEL-5 melanoma
SK-MEL-2 melanoma = test system: SK-MEL-2 melanoma
OVCAR-8 ovarian = test system: OVCAR-8 ovarian
UO-31 renal = test system: UO-31 renal
MOLT-4 leukemia = test system: MOLT-4 leukemia
SNB-75 CNS = test system: SNB-75 CNS
SK-OV-3 ovarian = test system: SK-OV-3 ovarian
NCI-H522 lung = test system: NCI-H522 lung
LOX IMVI melanoma = test system: LOX IMVI melanoma
CCRF-CEM leukemia = test system: CCRF-CEM leukemia
SN12K1 renal = test system: SN12K1 renal
COLO 205 colon = test system: COLO 205 colon
HOP-18 NSCLC = test system: HOP-18 NSCLC
HL-60(TB) leukemia = test system: HL-60(TB) leukemia
RPMI-8226 leukemia = test system: RPMI-8226 leukemia
NCI-H23 lung = test system: NCI-H23 lung
SK-MEL-28 melanoma = test system: SK-MEL-28 melanoma
NCI-H460 lung = test system: NCI-H460 lung
U251 CNS = test system: U251 CNS
IGROV1 ovarian = test system: IGROV1 ovarian
SN12C renal = test system: SN12C renal
KM12 colon = test system: KM12 colon
P388/ADR leukemia = test system: P388/ADR leukemia
SF-539 CNS = test system: SF-539 CNS
NCI-H226 lung = test system: NCI-H226 lung
A498 renal = test system: A498 renal
SW-620 colon = test system: SW-620 colon
NCI/ADR-RES ovarian = test system: NCI/ADR-RES ovarian
SNB-19 CNS = test system: SNB-19 CNS
DLD-1 colon = test system: DLD-1 colon
OVCAR-5 ovarian = test system: OVCAR-5 ovarian
SF-268 CNS = test system: SF-268 CNS
HCT-15 colon = test system: HCT-15 colon
OVCAR-3 ovarian = test system: OVCAR-3 ovarian
K-562 leukemia = test system: K-562 leukemia
A549 NSCLC = test system: A549 NSCLC
MCF7 breast = test system: MCF7 breast
UACC-62 melanoma = test system: UACC-62 melanoma
DMS 114 small cell lung = test system: DMS 114 small cell lung
XF 498 CNS = test system: XF 498 CNS
EKVX NSCLC = test system: EKVX NSCLC
HCT-116 colon = test system: HCT-116 colon
HT29 colon = test system: HT29 colon
SNB-78 CNS = test system: SNB-78 CNS
HCC-2998 colon = test system: HCC-2998 colon
RXF 393 renal = test system: RXF 393 renal
P388 leukemia = test system: P388 leukemia
UACC-257 melanoma = test system: UACC-257 melanoma
OVCAR-4 ovarian = test system: OVCAR-4 ovarian
M19-MEL melanoma = test system: M19-MEL melanoma
KM20L2 colon = test system: KM20L2 colon
DMS 273 small cell lung = test system: DMS 273 small cell lung
MALME-3M melanoma = test system: MALME-3M melanoma

## O=C(N[C@@H](c1ccccc1)[C@@H](O)C(=O)OCc1ccc2c(c1)OCO2)c1ccccc1
CAKI-1 renal
  TGI: > 100 µM
HOP-92 NSCLC
  TGI: > 100 µM
SF-295 CNS
  TGI: > 100 µM
HOP-62 NSCLC
  TGI: > 100 µM
SK-MEL-5 melanoma
  TGI: > 100 µM
SK-MEL-2 melanoma
  TGI: > 100 µM
OVCAR-8 ovarian
  TGI: > 100 µM
UO-31 renal
  TGI: > 100 µM
MOLT-4 leukemia
  TGI: > 100 µM
SNB-75 CNS
  TGI: > 100 µM
SK-OV-3 ovarian
  TGI: > 100 µM
NCI-H522 lung
  TGI: > 100 µM
LOX IMVI melanoma
  TGI: > 100 µM
CCRF-CEM leukemia
  TGI: > 100 µM
SN12K1 renal
  TGI: > 100 µM
COLO 205 colon
  TGI: > 100 µM
HOP-18 NSCLC
  TGI: > 100 µM
HL-60(TB) leukemia
  TGI: > 100 µM
RPMI-8226 leukemia
  TGI: > 100 µM
NCI-H23 lung
  TGI: > 100 µM
SK-MEL-28 melanoma
  TGI: > 100 µM
NCI-H460 lung
  TGI: > 100 µM
U251 CNS
  TGI: > 100 µM
IGROV1 ovarian
  TGI: > 100 µM
SN12C renal
  TGI: > 100 µM
KM12 colon
  TGI: > 100 µM
P388/ADR leukemia
  TGI: > 100 µM
SF-539 CNS
  TGI: > 100 µM
NCI-H226 lung
  TGI: > 100 µM
A498 renal
  TGI: > 100 µM
SW-620 colon
  TGI: > 100 µM
NCI/ADR-RES ovarian
  TGI: > 100 µM
SNB-19 CNS
  TGI: > 100 µM
DLD-1 colon
  TGI: > 100 µM
OVCAR-5 ovarian
  TGI: > 31.6 µM
SF-268 CNS
  TGI: > 100 µM
HCT-15 colon
  TGI: > 100 µM
OVCAR-3 ovarian
  TGI: > 100 µM
K-562 leukemia
  TGI: > 100 µM
A549 NSCLC
  TGI: > 100 µM
MCF7 breast
  TGI: > 100 µM
UACC-62 melanoma
  TGI: > 100 µM
DMS 114 small cell lung
  TGI: > 100 µM
XF 498 CNS
  TGI: > 100 µM
EKVX NSCLC
  TGI: > 100 µM
HCT-116 colon
  TGI: > 100 µM
HT29 colon
  TGI: > 100 µM
SNB-78 CNS
  TGI: > 100 µM
HCC-2998 colon
  TGI: > 100 µM
RXF 393 renal
  TGI: > 100 µM
P388 leukemia
  TGI: > 100 µM
UACC-257 melanoma
  TGI: > 100 µM
OVCAR-4 ovarian
  TGI: > 100 µM
M19-MEL melanoma
  TGI: > 100 µM
KM20L2 colon
  TGI: > 100 µM
DMS 273 small cell lung
  TGI: > 100 µM
MALME-3M melanoma
  TGI: > 100 µM
